Assay results published in ChEMBL document CHEMBL3885881, “DrugMatrix”.

Species: Rattus norvegicus
Experiment: DrugMatrix - Regimen: Daily Repeat
Format: toxicity, organism-based, Sprague-Dawley
Design: regimen Daily Repeat, gender Male, age 6-8 weeks
Conditions: in vivo, po, route oral GAVAGE, […]; for ABSOLUTE BASOPHIL / ABSOLUTE EOSINOPHIL / ABSOLUTE LYMPHOCYTE / ABSOLUTE MONOCYTE / ABSOLUTE SEGMENTED NEUTROPHIL / BASOPHIL / EOSINOPHIL / ERYTHROCYTE COUNT / HEMATOCRIT / HEMOGLOBIN / LEUKOCYTE COUNT / LYMPHOCYTE / MEAN CORPUSCULAR HEMOGLOBIN / MEAN CORPUSCULAR HEMOGLOBIN CONCENTRATION / MEAN CORPUSCULAR VOLUME / MONOCYTE / NEUTROPHIL / NUCLEATED RED BLOOD CELLS / PLATELET COUNT: tissue Blood; for ALANINE AMINOTRANSFERASE / ALBUMIN / ALKALINE PHOSPHATASE / ASPARTATE AMINOTRANSFERASE / BLOOD UREA NITROGEN / CARBON DIOXIDE / CHLORIDE / CHOLESTEROL / CREATINE PHOSPHOKINASE / CREATININE / GLUCOSE / LACTATE DEHYDROGENASE / LIPASE / PHOSPHORUS / POTASSIUM / SODIUM / TOTAL BILIRUBIN / TOTAL PROTEIN / URIC ACID: tissue Plasma
[1] = 20 mg/kg, 120 h, dose level Low, time 5 day
[2] = 200 mg/kg, 72 h, dose level High, time 3 day
[3] = 200 mg/kg, 120 h, dose level High, time 5 day
[4] = 200 mg/kg, dose level High, time 28 day

In the case of CCCCCCCCCc1ccc(O)cc1 [4-NONYLPHENOL], the “ABSOLUTE BASOPHIL” value [1] is reported as 0 CELLS/uL, the “ABSOLUTE EOSINOPHIL” value [1] is reported as 0 CELLS/uL and the “ABSOLUTE LYMPHOCYTE” value [1] is reported as 17193.33 CELLS/uL. For the same compound, the “ABSOLUTE MONOCYTE” value [1] was 138.33 CELLS/uL, the “ABSOLUTE SEGMENTED NEUTROPHIL” value [1] was 1901.67 CELLS/uL and the BASOPHIL [1] was 0%. The EOSINOPHIL [1] was 0%, the “ERYTHROCYTE COUNT” value [1] was 5.43 x10E6/uL and the HEMATOCRIT [1] was 34.2%. The HEMOGLOBIN [1] was 13.17 G/DL, the “LEUKOCYTE COUNT” value [1] was 19.23 x10E3/uL and the LYMPHOCYTE [1] was 89.67%. For the same compound, the “MEAN CORPUSCULAR HEMOGLOBIN” value [1] was 24.2 pg, the “MEAN CORPUSCULAR HEMOGLOBIN CONCENTRATION” value [1] was 38.5 G/DL and the “MEAN CORPUSCULAR VOLUME” value [1] was 62.9 fL. The MONOCYTE [1] was 0.67%, the NEUTROPHIL [1] was 9.67% and the “NUCLEATED RED BLOOD CELLS” value [1] was 0 /100WBC. For the same compound, the “PLATELET COUNT” value [1] was 1124 x10E3/uL, the “ALANINE AMINOTRANSFERASE” value [1] was 65.33 u/L and the ALBUMIN [1] was 3.77 G/DL. For the same compound, the “ALKALINE PHOSPHATASE” value [1] was 413 u/L, the “ASPARTATE AMINOTRANSFERASE” value [1] was 82.67 u/L and the “BLOOD UREA NITROGEN” value [1] was 15.67 mg/dL. The “CARBON DIOXIDE” value [1] was 25.67 mmol/L, the CHLORIDE [1] was 102.33 MEQ/L and the CHOLESTEROL [1] was 56.33 mg/dL. For the same compound, the “CREATINE PHOSPHOKINASE” value [1] was 278 u/L, the CREATININE [1] was 0.21 mg/dL and the GLUCOSE [1] was 202.33 mg/dL. The “LACTATE DEHYDROGENASE” value [1] was 147 u/L, the LIPASE [1] was 10.67 u/L and the PHOSPHORUS [1] was 10.77 mg/dL. The POTASSIUM [1] was 5.35 MEQ/L, the SODIUM [1] was 142.1 MEQ/L and the “TOTAL BILIRUBIN” value [1] was 0.2 mg/dL. The “TOTAL PROTEIN” value [1] was 5.57 G/DL, the “URIC ACID” value [1] was 1.3 mg/dL and the “ABSOLUTE BASOPHIL” value [2] was 0 CELLS/uL. For the same compound, the “ABSOLUTE EOSINOPHIL” value [2] was 0 CELLS/uL, the “ABSOLUTE LYMPHOCYTE” value [2] was 7018 CELLS/uL and the “ABSOLUTE MONOCYTE” value [2] was 153.33 CELLS/uL. For the same compound, the “ABSOLUTE SEGMENTED NEUTROPHIL” value [2] was 495.33 CELLS/uL, the BASOPHIL [2] was 0% and the EOSINOPHIL [2] was 0%. The “ERYTHROCYTE COUNT” value [2] was 5.58 x10E6/uL, the HEMATOCRIT [2] was 35.4% and the HEMOGLOBIN [2] was 13.8 G/DL. For the same compound, the “LEUKOCYTE COUNT” value [2] was 7.67 x10E3/uL, the LYMPHOCYTE [2] was 92% and the “MEAN CORPUSCULAR HEMOGLOBIN” value [2] was 24.73 pg. The “MEAN CORPUSCULAR HEMOGLOBIN CONCENTRATION” value [2] was 39 G/DL, the “MEAN CORPUSCULAR VOLUME” value [2] was 63.47 fL and the MONOCYTE [2] was 2%. For the same compound, the NEUTROPHIL [2] was 6%, the “NUCLEATED RED BLOOD CELLS” value [2] was 0 /100WBC and the “PLATELET COUNT” value [2] was 1128 x10E3/uL. For the same compound, the “ALANINE AMINOTRANSFERASE” value [2] was 81.33 u/L, the ALBUMIN [2] was 3.77 G/DL and the “ALKALINE PHOSPHATASE” value [2] was 503.67 u/L. The “ASPARTATE AMINOTRANSFERASE” value [2] was 95.67 u/L, the “BLOOD UREA NITROGEN” value [2] was 14.33 mg/dL and the “CARBON DIOXIDE” value [2] was 32 mmol/L. The CHLORIDE [2] was 103 MEQ/L, the CHOLESTEROL [2] was 45.33 mg/dL and the “CREATINE PHOSPHOKINASE” value [2] was 276.67 u/L. The CREATININE [2] was 0.21 mg/dL, the GLUCOSE [2] was 139 mg/dL and the “LACTATE DEHYDROGENASE” value [2] was 138.67 u/L. It also gave an LIPASE [2] of 10 u/L, a PHOSPHORUS [2] of 10.23 mg/dL and a POTASSIUM [2] of 5.46 MEQ/L. The SODIUM [2] was 145.47 MEQ/L, the “TOTAL BILIRUBIN” value [2] was 0.1 mg/dL and the “TOTAL PROTEIN” value [2] was 5.47 G/DL. The “URIC ACID” value [2] was 0.9 mg/dL, the “ABSOLUTE BASOPHIL” value [3] was 0 CELLS/uL and the “ABSOLUTE EOSINOPHIL” value [3] was 0 CELLS/uL. For the same compound, the “ABSOLUTE LYMPHOCYTE” value [3] was 11098.67 CELLS/uL, the “ABSOLUTE MONOCYTE” value [3] was 165.33 CELLS/uL and the “ABSOLUTE SEGMENTED NEUTROPHIL” value [3] was 402.67 CELLS/uL. For the same compound, the “NUCLEATED RED BLOOD CELLS” value [3] was 0 /100WBC, the “CARBON DIOXIDE” value [3] was 26.67 mmol/L and the “LACTATE DEHYDROGENASE” value [3] was 116.33 u/L. For the same compound, the LIPASE [3] was 10.33 u/L, the “URIC ACID” value [3] was 1.43 mg/dL and the BASOPHIL [4] was 0.42%. For the same compound, the EOSINOPHIL [4] was 0.61%, the “ERYTHROCYTE COUNT” value [4] was 8.21 x10E6/uL and the HEMATOCRIT [4] was 48.61%. For the same compound, the HEMOGLOBIN [4] was 16.26 G/DL, the “LEUKOCYTE COUNT” value [4] was 11.53 x10E3/uL and the LYMPHOCYTE [4] was 85.82%. The “MEAN CORPUSCULAR HEMOGLOBIN” value [4] was 19.84 pg, the “MEAN CORPUSCULAR HEMOGLOBIN CONCENTRATION” value [4] was 33.5 G/DL and the “MEAN CORPUSCULAR VOLUME” value [4] was 59.24 fL. For the same compound, the MONOCYTE [4] was 1.34%, the NEUTROPHIL [4] was 10.54% and the “PLATELET COUNT” value [4] was 1292.8 x10E3/uL. The “ALANINE AMINOTRANSFERASE” value [4] was 29.3 u/L, the ALBUMIN [4] was 3.91 G/DL and the “ALKALINE PHOSPHATASE” value [4] was 186.6 u/L. For the same compound, the “ASPARTATE AMINOTRANSFERASE” value [4] was 70.1 u/L, the “BLOOD UREA NITROGEN” value [4] was 11.8 mg/dL and the CHLORIDE [4] was 107.1 MEQ/L. The CHOLESTEROL [4] was 66 mg/dL, the “CREATINE PHOSPHOKINASE” value [4] was 191.6 u/L and the CREATININE [4] was 0.46 mg/dL. For the same compound, the GLUCOSE [4] was 145.6 mg/dL, the PHOSPHORUS [4] was 12.09 mg/dL and the POTASSIUM [4] was 6.67 MEQ/L. The SODIUM [4] was 149 MEQ/L, the “TOTAL BILIRUBIN” value [4] was 0.23 mg/dL and the “TOTAL PROTEIN” value [4] was 6.7 G/DL.
